# Measurements as given in patent US20170143701A1, “CARBOHYDRATE METABOLISM-AMELIORATING AGENT” (SUNTORY HOLDINGS LIMITED, priority 2014, published 2017).
# Test system: NCI-H716 cells
# Experiment: In vitro GLP-1 secretion-accelerating action: amount of active GLP-1 secreted (ELISA)
# Assay type: cell-based
# Details: 1 hour; for Significant difference (p < 0.05) vs control group, amount of active GLP-1 secreted: 10 mM, Student's t-test; for Amount of active GLP-1 secreted (relative value to control group as 100), average value: cyclic dipeptide 10 mM with 10 μM Sitagliptin phosphate, group with no cyclic dipeptide = 100
# Description: Among the cyclic dipeptides, 92 highly water-soluble cyclic dipeptides were used in the following experiment. In each well of a Poly-L-Lysine 96-well plate, NCI-H716 cells suspended in 100 μL of a DMEM (with 10% FBS, 2 mM glutamine, and 1% antibiotics added in advance) were seeded at 0.5×10^5 cells/well, and cultured in a CO2 incubator (manufactured by ESPEC CORP.) for 48 hours. After washing with PBS(+), 100 μL of a PBS(+) solution with each cyclic dipeptide at a final concentration of 10 mM and 10 μM of Sitagliptin phosphate added therein was added to the cells. After 1 hour, the resultant solution was recovered, and the amount of active GLP-1 in the solution was measured by using the ELISA kit. In the analysis, the amount of active GLP-1 for a group with no cyclic dipeptide added was defined as 100, and relative values thereto were used.
SMILES,"Significant difference (p < 0.05) vs control group, amount of active GLP-1 secreted (Table 3, Experiment 3)","Amount of active GLP-1 secreted (relative value to control group as 100), average value (Table 3, Experiment 3)",also measured
"C[C@@H]1NC(=O)[C@H](CC(=O)O)NC1=O [compound 153, Cyclo(Asp-Ala)]",No,94,
"O=C1N[C@@H](CO)C(=O)N[C@H]1CO [compound 1, Cyclo(Ser-Ser)]",,,"Significant difference (p < 0.05) vs control group, amount of active GLP-1 secreted (Table 1, Experiment 1): No; Amount of active GLP-1 secreted (relative value to control group as 100), average value (Table 1, Experiment 1): 124"
"NCCCC[C@@H]1NC(=O)[C@H](Cc2c[nH]c3ccccc23)NC1=O [compound 59, cyclo-tryptophanyl-lysine]",,,"Significant difference (p < 0.05) vs control group, amount of active GLP-1 secreted (Table 2, Experiment 2): Yes; Amount of active GLP-1 secreted (relative value to control group as 100), average value (Table 2, Experiment 2): 239"
"NC(=O)C[C@@H]1NC(=O)[C@H](Cc2cnc[nH]2)NC1=O [compound 111, cyclo-asparaginyl-histidine]",Yes,341,
"O=C1NCC(=O)N2CC(O)CC12 (stereo not shown) [compound 73, Cyclo(Hyp-Gly)]",,,"Significant difference (p < 0.05) vs control group, amount of active GLP-1 secreted (Table 2, Experiment 2): No; Amount of active GLP-1 secreted (relative value to control group as 100), average value (Table 2, Experiment 2): 121"
"NCCCCC1NC(=O)C(CCCCN)NC1=O (stereo not shown) [compound 40, Cyclo(Lys-Lys)]",,,"Significant difference (p < 0.05) vs control group, amount of active GLP-1 secreted (Table 1, Experiment 1): No; Amount of active GLP-1 secreted (relative value to control group as 100), average value (Table 1, Experiment 1): 164"
"NC(=O)CCC1NC(=O)C(Cc2ccccc2)NC1=O (stereo not shown) [compound 65, cyclo-glutaminyl-phenylalanine]",,,"Significant difference (p < 0.05) vs control group, amount of active GLP-1 secreted (Table 2, Experiment 2): Yes; Amount of active GLP-1 secreted (relative value to control group as 100), average value (Table 2, Experiment 2): 227"
"NC(=O)CC[C@@H]1NC(=O)CNC1=O [compound 24, Cyclo(Gln-Gly)]",,,"Significant difference (p < 0.05) vs control group, amount of active GLP-1 secreted (Table 5, Experiment 5): No; Amount of active GLP-1 secreted (relative value to control group as 100), average value (Table 5, Experiment 5): 89"
"O=C(O)CCC1NC(=O)C(CO)NC1=O (stereo not shown) [compound 192, cyclo-seryl-glutamic acid]",,,"Significant difference (p < 0.05) vs control group, amount of active GLP-1 secreted (Table 4, Experiment 4): Yes"
"C[C@@H]1NC(=O)[C@H](CCC(N)=O)NC1=O [compound 23, Cyclo(Ala-Gln)]",,,"Significant difference (p < 0.05) vs control group, amount of active GLP-1 secreted (Table 5, Experiment 5): No; Amount of active GLP-1 secreted (relative value to control group as 100), average value (Table 5, Experiment 5): 99"
"NC(N)=NCCC[C@@H]1NC(=O)[C@H](Cc2cnc[nH]2)NC1=O [compound 112, Cyclo(Arg-His)]",No,106,
"O=C1NC(Cc2cnc[nH]2)C(=O)NC1Cc1cnc[nH]1 (stereo not shown) [compound 107, cyclo-histidyl-histidine]",Yes,182,
"NC(=O)CC[C@@H]1NC(=O)[C@H](CO)NC1=O [compound 136, Cyclo(Gln-Ser)]",No,251,
"NC(=O)CCC1NC(=O)C(CC(=O)O)NC1=O (stereo not shown) [compound 171, Cyclo(Gln-Asp)]",No,120,
"NCCCCC1NC(=O)CNC1=O (stereo not shown) [compound 96, cyclo-lysyl-glycine]",Yes,133,
"CC1NC(=O)CNC1=O (stereo not shown) [compound 121, Cyclo(Gly-Ala)]",No,153,
"C[C@H]1NC(=O)[C@@H]2CCCN2C1=O [compound 5, Cyclo(D-Ala-Pro)]",,,"Significant difference (p < 0.05) vs control group, amount of active GLP-1 secreted (Table 1, Experiment 1): No; Amount of active GLP-1 secreted (relative value to control group as 100), average value (Table 1, Experiment 1): 113"
"CC(O)C1NC(=O)C(CCCCN)NC1=O (stereo not shown) [compound 143, Cyclo(Thr-Lys)]",No,105,
"O=C1CNC(=O)CN1 [compound 2, Cyclo(Gly-Gly)]",,,"Significant difference (p < 0.05) vs control group, amount of active GLP-1 secreted (Table 5, Experiment 5): No; Amount of active GLP-1 secreted (relative value to control group as 100), average value (Table 5, Experiment 5): 151"

SMILES,"Significant difference (p < 0.05) vs control group, amount of active GLP-1 secreted (Table 3, Experiment 3)","Amount of active GLP-1 secreted (relative value to control group as 100), average value (Table 3, Experiment 3)",also measured
"NCCCC[C@@H]1NC(=O)[C@H](CCC(=O)O)NC1=O [compound 97, Cyclo(Glu-Lys)]",No,66,
"NC(=O)CCC1NC(=O)C2CCCN2C1=O (stereo not shown) [compound 188, Cyclo(Gln-Pro)]",,,"Significant difference (p < 0.05) vs control group, amount of active GLP-1 secreted (Table 4, Experiment 4): No; Amount of active GLP-1 secreted (relative value to control group as 100), average value (Table 4, Experiment 4): 132"
"NCCCC[C@@H]1NC(=O)[C@@H]2CCCN2C1=O [compound 58, Cyclo(Lys-Pro)]",,,"Significant difference (p < 0.05) vs control group, amount of active GLP-1 secreted (Table 2, Experiment 2): No; Amount of active GLP-1 secreted (relative value to control group as 100), average value (Table 2, Experiment 2): 91"
"O=C(O)CC1NC(=O)C(Cc2cnc[nH]2)NC1=O (stereo not shown) [compound 110, cyclo-aspartyl-histidine]",Yes,340,
"C[C@H](O)[C@@H]1NC(=O)[C@H](CC(N)=O)NC1=O [compound 166, Cyclo(Asn-Thr)]",No,149,
"CC(O)C1NC(=O)C(CCC(=O)O)NC1=O (stereo not shown) [compound 157, Cyclo(Thr-Glu)]",No,139,
"C[C@@H]1NC(=O)[C@H](CCC(=O)O)NC1=O [compound 113, Cyclo(Glu-Ala)]",No,157,
"O=C(O)CCC1NC(=O)C2CCCN2C1=O (stereo not shown) [compound 45, Cyclo(Glu-Pro)]",,,"Significant difference (p < 0.05) vs control group, amount of active GLP-1 secreted (Table 1, Experiment 1): No; Amount of active GLP-1 secreted (relative value to control group as 100), average value (Table 1, Experiment 1): 145"
"C[C@@H]1NC(=O)[C@H](C)NC1=O [compound 3, Cyclo(Ala-Ala)]",,,"Significant difference (p < 0.05) vs control group, amount of active GLP-1 secreted (Table 1, Experiment 1): No; Amount of active GLP-1 secreted (relative value to control group as 100), average value (Table 1, Experiment 1): 95"
"CC(O)C1NC(=O)C(Cc2cnc[nH]2)NC1=O (stereo not shown) [compound 109, cyclo-threonyl-histidine]",Yes,290,
"NCCCC[C@@H]1NC(=O)[C@H](CO)NC1=O [compound 98, cyclo-seryl-lysine]",Yes,71,
"C[C@H](O)[C@@H]1NC(=O)[C@H](CCCN=C(N)N)NC1=O [compound 168, Cyclo(Arg-Thr)]",No,142,
"CC(C)CC1NC(=O)C(CCCCN)NC1=O (stereo not shown) [compound 68, Cyclo(Leu-Lys)]",,,"Significant difference (p < 0.05) vs control group, amount of active GLP-1 secreted (Table 2, Experiment 2): No; Amount of active GLP-1 secreted (relative value to control group as 100), average value (Table 2, Experiment 2): 208"
"NC(=O)C[C@@H]1NC(=O)[C@H](CCC(=O)O)NC1=O [compound 129, Cyclo(Asn-Glu)]",No,118,
"CC(C)C[C@@H]1NC(=O)[C@@H]2CCCN2C1=O [compound 19, cyclo-leucyl-proline]",,,"Significant difference (p < 0.05) vs control group, amount of active GLP-1 secreted (Table 1, Experiment 1): Yes; Amount of active GLP-1 secreted (relative value to control group as 100), average value (Table 1, Experiment 1): 173"
"NC(=O)CC[C@@H]1NC(=O)CNC1=O [compound 36, Cyclo(Gln-Gly)]",,,"Significant difference (p < 0.05) vs control group, amount of active GLP-1 secreted (Table 5, Experiment 5): No; Amount of active GLP-1 secreted (relative value to control group as 100), average value (Table 5, Experiment 5): 75"
"CC1NC(=O)C(C(C)O)NC1=O (stereo not shown) [compound 114, Cyclo(Thr-Ala)]",No,89,
"NC(=O)C[C@@H]1NC(=O)[C@H](CC(=O)O)NC1=O [compound 170, Cyclo(Asn-Asp)]",No,125,
